Structures can show the parent of a compound that is named as a salt. Where two headings read alike, the source gives them in different places.
Key:
Ixodes ricinus = assay: Oral acaricidal test on ticks in membrane feeding wells with treated blood; assay type: in vivo; conditions: for mortality at 1 ppm / mortality at 10 ppm / mortality at 100 ppm: Ixodes ricinus, po
Experimental: A laboratory study was conducted to determine the oral acaricidal properties of three compounds according to the invention (SN0305, SN0306 and SN0307) against Ixodes ricinus. Each compound was tested at 1, 10 and 100 ppm, and compared to a negative control corresponding to solvent alone (0.1% DMSO). Amitraz at 100 ppm was used as a positive control.
The Ixodes ricinus ticks (nymphs and adults) were placed for 24 hours on a membrane in feeding wells containing blood mixed with the tested compounds. Tick mortality (number of dead, moribund, or unaffected ticks in each well), attachment to the membrane (number of ticks attached/detached in each well), and the behavior (presence or absence of twitches) were examined 1, 3, 6, 12, 24, 48, 72, and 96 hours after the onset of tick exposure to the compounds.
Ticks (Ixodes ricinus) were collected. Collected adult females were kept separate from the nymphs and both were placed in sterile tubes in a humidity chamber to provide ˜80% humidity and 17° C. Only healthy ticks (females/nymphs) were chosen for the experiment.
Batches of 12 adults or nymphs were inserted into the feeding wells. After about 24 hours, their attachment was examined with a brush.
The efficiency of three compounds (SN0305, SN0306 and SN0307), each tested at three concentrations (1, 10, 100 ppm), was compared to the solvent control (0.1% DMSO, Sigma-Aldrich D-5879; Lot 101K0028) and to the positive control (Amitraze at 100 ppm).
Silicone-coated membranes with a thickness comprised between 110 and 140 μm were used for the construction of the feeding units.
Feeding units (sterilized acrylic glass tubes) were placed in feeding wells made of sterilized six-well plates.
3.1 ml of sterile 10^−3 M ATP-enriched blood was applied to each feeding well. Feeding wells were then inserted into a heated water bath (FIG. 12) and maintained at 37° C.±2° C.
Stock solutions of 100,000 ppm were prepared and tenth dilutions were carried out in 0.1% DMSO to reach the desired concentrations. After tick attachment (24 hours after placing the ticks in the feeding wells), 3.1 μl of the solutions were added to each feeding well containing 3.1 ml of blood. Blood was changed after 12 hours with fresh supplementation of the compounds to be tested. The ticks were exposed to the product for a total of 24 hours, after which the blood was again changed to fresh, untreated blood.
Tick mortality (number of dead, moribund or unaffected ticks in each well), attachment (number of attached/detached ticks in each well) and behavior (presence, absence and intensity of convulsions) were examined 1, 3, 6, 12, 24, 48, 72, and 96 hours after the start of tick exposure to the compound.

bees = assay: Mortality of adult bees in treated beehives (dead bee traps); assay type: in vivo; conditions: 220 mg/hive
Experimental: 18 hives of bees were divided into 6 groups of 3 homogeneous hives as regards the strength of the colonies (number of bees) and the Varroa infestation.
The tested compounds were applied in the form of a gel three weeks after the queen was caged. The activity of the compounds was studied for a period of 9 days.
For this purpose, dead bee traps disposed in front of the hives were used.
The following compounds were tested: • Dexmedetomidine at 55 mg/hive in hydrochloride form, • Dexmedetomidine at 110 mg/hive in hydrochloride form, • Dexmedetomidine at 220 mg/hive in hydrochloride form, • Detomidine at 38.4 mg/hive in hydrochloride form, • Detomidine at 110 mg/hive in hydrochloride form, • Detomidine at 220 mg/hive in hydrochloride form, Results

[1] = adult ticks, 1 h, read-out: average percentage of adult tick mortality (moribund or dead adult ticks)
[2] = adult ticks, 3 h, read-out: average percentage of adult tick mortality (moribund or dead adult ticks)
[3] = adult ticks, 6 h, read-out: average percentage of adult tick mortality (moribund or dead adult ticks)
[4] = adult ticks, 12 h, read-out: average percentage of adult tick mortality (moribund or dead adult ticks)
[5] = adult ticks, 24 h, read-out: average percentage of adult tick mortality (moribund or dead adult ticks)
[6] = adult ticks, 48 h, read-out: average percentage of adult tick mortality (moribund or dead adult ticks)
[7] = adult ticks, 72 h, read-out: average percentage of adult tick mortality (moribund or dead adult ticks)
[8] = adult ticks, 96 h, read-out: average percentage of adult tick mortality (moribund or dead adult ticks)
[9] = nymphs, 1 h, read-out: average percentage of mortality of tick nymphs (moribund or dead nymphs)
[10] = nymphs, 3 h, read-out: average percentage of mortality of tick nymphs (moribund or dead nymphs)
[11] = nymphs, 6 h, read-out: average percentage of mortality of tick nymphs (moribund or dead nymphs)
[12] = nymphs, 12 h, read-out: average percentage of mortality of tick nymphs (moribund or dead nymphs)
[13] = nymphs, 24 h, read-out: average percentage of mortality of tick nymphs (moribund or dead nymphs)
[14] = nymphs, 48 h, read-out: average percentage of mortality of tick nymphs (moribund or dead nymphs)
[15] = nymphs, 72 h, read-out: average percentage of mortality of tick nymphs (moribund or dead nymphs)
[16] = nymphs, 96 h, read-out: average percentage of mortality of tick nymphs (moribund or dead nymphs)

**Q.** What does the source list for `Cc1cccc(Cc2cnc[nH]2)c1C` [Detomidine hydrochloride, 4-[(2,3-dimethylphenyl)-methyl]-3H-imidazole]?
**A.** effect in terms of tick detachment (in words) (Ixodes ricinus; 1, 10, 100 ppm, nymphs and adults): very limited effect; detached adults in a replica (Ixodes ricinus; 1 ppm, adult ticks): 2; mortality at 1 ppm (Ixodes ricinus; adult ticks, 1 ppm, 1 h, read-out: average percentage of adult tick mortality (moribund or dead adult ticks)): 0%; mortality at 1 ppm (Ixodes ricinus; adult ticks, 1 ppm, 3 h, read-out: average percentage of adult tick mortality (moribund or dead adult ticks)): 0%; mortality at 1 ppm (Ixodes ricinus; adult ticks, 1 ppm, 6 h, read-out: average percentage of adult tick mortality (moribund or dead adult ticks)): 2.8%; mortality at 1 ppm (Ixodes ricinus; adult ticks, 1 ppm, 12 h, read-out: average percentage of adult tick mortality (moribund or dead adult ticks)): 2.8%; mortality at 1 ppm (Ixodes ricinus; adult ticks, 1 ppm, 24 h, read-out: average percentage of adult tick mortality (moribund or dead adult ticks)): 62.9%; mortality at 1 ppm (Ixodes ricinus; adult ticks, 1 ppm, 48 h, read-out: average percentage of adult tick mortality (moribund or dead adult ticks)): 88.2%; mortality at 1 ppm (Ixodes ricinus; adult ticks, 1 ppm, 72 h, read-out: average percentage of adult tick mortality (moribund or dead adult ticks)): 100%; mortality at 1 ppm (Ixodes ricinus; adult ticks, 1 ppm, 96 h, read-out: average percentage of adult tick mortality (moribund or dead adult ticks)): 100%; mortality at 10 ppm (Ixodes ricinus; [1]): 0%; mortality at 10 ppm (Ixodes ricinus; [2]): 0%; mortality at 10 ppm (Ixodes ricinus; [3]): 8.3%; mortality at 10 ppm (Ixodes ricinus; [4]): 8.3%; mortality at 10 ppm (Ixodes ricinus; [5]): 52.1%; mortality at 10 ppm (Ixodes ricinus; [6]): 96.4%; mortality at 10 ppm (Ixodes ricinus; [7]): 100%; mortality at 10 ppm (Ixodes ricinus; [8]): 100%; mortality at 100 ppm (Ixodes ricinus; [1]): 0%; mortality at 100 ppm (Ixodes ricinus; [2]): 0%; mortality at 100 ppm (Ixodes ricinus; [3]): 8.8%; mortality at 100 ppm (Ixodes ricinus; [4]): 15.4%; mortality at 100 ppm (Ixodes ricinus; [5]): 24%; mortality at 100 ppm (Ixodes ricinus; [6]): 57.4%; mortality at 100 ppm (Ixodes ricinus; [7]): 100%; mortality at 100 ppm (Ixodes ricinus; [8]): 100%; mortality at 1 ppm (Ixodes ricinus; nymphs, 1 ppm, 1 h, read-out: average percentage of mortality of tick nymphs (moribund or dead nymphs)): 0%; mortality at 1 ppm (Ixodes ricinus; nymphs, 1 ppm, 3 h, read-out: average percentage of mortality of tick nymphs (moribund or dead nymphs)): 0%; mortality at 1 ppm (Ixodes ricinus; nymphs, 1 ppm, 6 h, read-out: average percentage of mortality of tick nymphs (moribund or dead nymphs)): 14.1%; mortality at 1 ppm (Ixodes ricinus; nymphs, 1 ppm, 12 h, read-out: average percentage of mortality of tick nymphs (moribund or dead nymphs)): 35.4%; mortality at 1 ppm (Ixodes ricinus; nymphs, 1 ppm, 24 h, read-out: average percentage of mortality of tick nymphs (moribund or dead nymphs)): 56.4%; mortality at 1 ppm (Ixodes ricinus; nymphs, 1 ppm, 48 h, read-out: average percentage of mortality of tick nymphs (moribund or dead nymphs)): 97.2%; mortality at 1 ppm (Ixodes ricinus; nymphs, 1 ppm, 72 h, read-out: average percentage of mortality of tick nymphs (moribund or dead nymphs)): 100%; mortality at 1 ppm (Ixodes ricinus; nymphs, 1 ppm, 96 h, read-out: average percentage of mortality of tick nymphs (moribund or dead nymphs)): 100%; mortality at 10 ppm (Ixodes ricinus; [9]): 0%; mortality at 10 ppm (Ixodes ricinus; [10]): 12.7%; mortality at 10 ppm (Ixodes ricinus; [11]): 35.5%; mortality at 10 ppm (Ixodes ricinus; [12]): 54.7%; mortality at 10 ppm (Ixodes ricinus; [13]): 88.1%; mortality at 10 ppm (Ixodes ricinus; [14]): 100%; mortality at 10 ppm (Ixodes ricinus; [15]): 100%; mortality at 10 ppm (Ixodes ricinus; [16]): 100%; mortality at 100 ppm (Ixodes ricinus; [9]): 0%; mortality at 100 ppm (Ixodes ricinus; [10]): 9.4%; mortality at 100 ppm (Ixodes ricinus; [11]): 45.3%; mortality at 100 ppm (Ixodes ricinus; [12]): 69.5%; mortality at 100 ppm (Ixodes ricinus; [13]): 95.5%; mortality at 100 ppm (Ixodes ricinus; [14]): 100%; mortality at 100 ppm (Ixodes ricinus; [15]): 100%; mortality at 100 ppm (Ixodes ricinus; [16]): 100%; ticks affected (convulsion, morbidity or death of ticks) (Ixodes ricinus; from 1 hour of exposure, regardless of the concentration tested (1, 10, 100 ppm)): 100%; mortality of the bees in the hive (in words) (bees): increase in the mortality of the bees
